Source: patent publication US10835507B2, “Treatment of muscular disorders with combinations of RXR agonists and thyroid hormones” (Io Therapeutics, Inc., priority 2016, dated 2020)
“Also recorded” adds a separate entry of the source.

What was measured:
[1] = tested on: mouse oligodendrocyte progenitor cells (OPCs); assay: Mouse oligodendrocyte progenitor cell differentiation, 5-day treatment, Example 5; format: cell-based; settings: 96-well plates, plp-EGFP mouse OPCs
Protocol: OPCs were derived from plp-EGFP expressing mice.
Therapeutic agents were tested in 96-well plates (6 wells per concentration). […] All media contained 0.1% DMSO. At the end of the 5-day treatment, cells were imaged on Cellomics in two channels and algorithms were used to count nuclei and EGFP+ oligodendrocytes.

RXRα = biological target: T1, RXRα (Homo sapiens, UniProt P19793); settings: RXR receptors vs RAR receptors
T1 sequence (P19793 1-462): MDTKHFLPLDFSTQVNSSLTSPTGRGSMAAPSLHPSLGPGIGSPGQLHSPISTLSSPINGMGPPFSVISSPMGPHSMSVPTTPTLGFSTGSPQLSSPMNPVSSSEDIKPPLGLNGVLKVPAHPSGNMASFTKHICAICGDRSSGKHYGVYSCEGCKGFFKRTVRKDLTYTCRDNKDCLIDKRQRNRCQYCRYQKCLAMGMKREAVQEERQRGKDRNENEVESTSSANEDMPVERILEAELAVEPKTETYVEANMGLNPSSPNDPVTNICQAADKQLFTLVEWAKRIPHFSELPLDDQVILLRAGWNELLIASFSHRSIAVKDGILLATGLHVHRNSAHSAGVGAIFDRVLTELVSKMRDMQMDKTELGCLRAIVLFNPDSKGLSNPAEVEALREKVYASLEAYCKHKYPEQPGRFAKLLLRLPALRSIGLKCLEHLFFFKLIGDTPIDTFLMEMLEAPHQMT
Protocol: To determine whether a RXR agonist can mediate its effects via RXRα receptor homodimers, RXRβ receptor homodimers, RXRγ receptor homodimers, or any combination thereof, or the corresponding RAR/RXR heterodimers, receptor-mediated transactivation assays were performed. For transactivation assays assessing RXR homodimer signaling, CV-1 cells were transfected with 1) an expression construct including a full length RXRα, RXRβ, or RXRγ; and 2) a rCRBPII/RXRE-tk-Luc reporter construct that included RXR homodimer-specific RXRE/DR1 responsive element linked to a luciferase gene. For transactivation assays assessing RAR/RXR heterodimer signaling, CV-1 cells were transfected with 1) an expression construct comprising a fusion protein including an estrogen receptor (ER) DNA binding domain linked to the ligand binding domain of RARα, RARβ, or RARγ and 2) a ERE-tk-Luc reporter construct that included an estrogen receptor responsive element linked to a luciferase gene. […] Data are mean values±SE from five independent experiments.

[2] = tested on: oligodendrocyte precursor cells (OPCs); assay: Oligodendrocyte precursor cell differentiation (EGFP expression), Example 4; format: cell-based, mouse
Source text: OPCs were generated from a neurosphere culture of E14.5 PLP-EGFP (on C57BL/6J background) mouse brains. […] The EGFP expressing cells were quantified with Cellomics Neuronal Profiling Algorithm.
The EGFP expressing cells in controls and all compounds were quantified with Cellomics Neuronal Profiling Algorithm.

[3] = tested on: mouse model of non-immune mediated demyelination; assay: 6-week cuprizone plus rapamycin demyelination model, corpus callosum histology, Example 7; format: in vivo, C57BL/6J mice; settings: IRX4204 10 mg/kg PO, T4 20 ng/g SQ, daily for 6 weeks during CR
Source text: (§1) Animals (8 week-old male C57BL/6J mice) were subjected to cuprizone diet plus rapamycin injections (CR) for 6 weeks to induce demyelination. […] All animals were sacrificed after 6 weeks of CR to evaluate axonal integrity and microglial/macrophage activity in the white matter (corpus callosum, CC).
The floating brain sections were immunostained with SMI-32 to visualize and quantify axonal ovoids in the CC.
The floating brain sections were immunostained with lba-1 to visualize and quantify microglia/macrophages in CC.

Pluripotent P19 cells = assay: Myogenic differentiation of pluripotent P19 cells; format: cell-based; settings: approximately 1 nM to about 1 μM, 1% DMSO; present-tense example
Protocol: Cells fixed to cover slips are then incubated with primary antibodies for skeletal muscle markers and then labeled with secondary antibodies. Microscopy analysis is performed and the number of skeletal myocytes quantified.

[4] = tested on: embryonic stem cells (ES); assay: Myogenic conversion of embryonic stem cells (embryoid bodies); format: cell-based; settings: embryoid bodies without DMSO, approximately 1 nM to about 1 μM; present-tense example
Source text: To test the potency of RXRs on myogenic conversion of embryonic stem cells (ES), embryoid bodies are formed without DMSO. […] Myoblasts are examined through microscopy and the number of myocytes counted.

[5] = tested on: murine skeletal muscle myoblasts and primary myoblasts; assay: Myoblast differentiation; format: cell-based; settings: about 10 nM to about 1 μM; present-tense example
Protocol: In order to determine and compare the efficacy of IRX4204 and IRX4204+thyroxine in myoblast differentiation, murine skeletal muscle myoblasts and primary myoblasts are cultured. Myogenic differentiation is initiated when cells are approximately 60-80% confluent, with the cells being differentiated into cell types, such as myotubes.

[6] = tested on: spontaneously hypertensive rats (SHRs); assay: Cardiac hypertrophy in spontaneously hypertensive rats; format: in vivo, rat; settings: present-tense example; for inhibition of the increase in cardiac mass and wall thickness: SHRs at 12 weeks of age, 10 mg to 100 mg/kg
Protocol: Four weeks old SHRs and control rats are randomized and put into groups of 5-10 rats/group. […] Transthoratic echocardiographs are performed to determine cardiac weights and measurements.
The animals are sacrificed at 16 weeks of age to determine cardiac hypertrophy. Hypertrophy is determined by the animal's left ventricle weight to body weight ratio. The myocyte cross-sectional area is also determined. Approximately 10 mg to about 30 mg of the animal's left ventricle is homogenized and subject to sodium dodecyl sulfate polyacrylamide gel electrophoresis (SDS-PAGE) and immunoblot analysis.

[7] = Terminal T4 levels, mortality and body weight in the demyelination study, Example 7; settings: 6 weeks treatment during CR
Source text: as §1
A total of 50 animals were included in the study, where 43 animals received CR demyelination for 6 weeks. During demyelination, a subset (n=7) of animals were kept on normal diet to serve as naïve age-matched controls.

SMILES	production of EGFP+ oligodendrocytes [1]	potency in activating RXR receptors rather than RAR receptors (RXRα)	total cell number and pyknotic cells compared to controls ([2]; OPC culture)	OPC differentiation into oligodendrocytes (EGFP positive cells) compared to negative control (DMSO) ([2]; OPCs from E14.5 PLP-EGFP mouse brains)	Iba1 staining (microglia/macrophages) in CC compared to vehicle [3]	number of SMI32 stained axonal ovoids in CC compared to Vehicle [3]	number of myogenically differentiated cells (skeletal myocytes) (Pluripotent P19 cells)	potency at increasing myogenic differentiation (number of myocytes) [4]	myoblast differentiation (numbers of microfibers, differentiated cells) [5]	inhibition of the increase in cardiac mass and wall thickness [6]	RXRα expression in cardiac muscle tissue (immunoblot) ([6]; SHRs at 16 weeks of age)	inhibition of cardiomyocyte cross-sectional area increases ([6]; SHRs at 16 weeks of age)	terminal body weights vs vehicle group [7]	ratio of left ventricle weight to body weight ([6]; SHRs at 16 weeks of age)
N[C@@H](Cc1cc(I)c(Oc2ccc(O)c(I)c2)c(I)c1)C(=O)O [Compound T3, triiodothyronine, reference compound]	clear dose-responses in oligodendrocyte production	–	–	–	–	–	–	–	–	–	–	–	–	–
CC(/C=C/[C@@H]1C[C@]1(C)c1ccc2c(c1)C(C)(C)CCC2(C)C)=C\C(=O)O [IRX4204, 3,7-dimethyl-6(S),7(S)-methano,7-[1,1,4,4-tetramethyl-1,2,3,4-tetrahydronaphth-7-yl]2(E),4(E) heptadienoic acid]	clear dose-responses in oligodendrocyte production	> 1,000 fold	did not show any differences	significant increase in OPC differentiation into oligodendrocytes; also recorded: dose dependent increase in the number of the EGFP positive cells	no difference	trend towards decreased number of axonal ovoids but was not statistically different from the Vehicle	higher number of myogenically differentiated cells as compared to cells treated with retinoic acid, bexarotene, or vehicle alone	more potent at increasing differentiation than treatment with retinoic acid, bexarotene, or vehicle alone	increased numbers of microfibers as compared to cells treated with thyroxine or vehicle alone	greater inhibition of the increase in cardiac mass and wall thickness as compared to bexarotene-treated animals	up-regulated more	greater inhibition of cardiomyocyte cross-sectional area increases than treatment with bexarotene	no significant difference	–
C=C(c1ccc(C(=O)O)cc1)c1cc2c(cc1C)C(C)(C)CCC2(C)C [bexarotene, 4-[1-(3,5,5,8,8-pentamethyl-6,7-dihydronaphthalen-2-yl)ethenyl]benzoic acid, reference compound]	–	–	–	–	–	–	–	–	–	inhibition of the increase in cardiac mass and wall thickness as compared to vehicle-only treated SHRs	–	–	–	significantly lower ratio of left ventricle weight to body weight as compared to vehicle-only treated SHRs
